Where a SMILES comes first, the peptide text is derived from it.
How the values were obtained:
Assay type in all cases: cell-based, Human
HeLa cells [1] = assay: PMO, PNA and siRNA transduction in HeLa cells with FSD250; details: all conditions tested, FIG. 7B
Protocol: Phosphorodiamidate morpholino oligomers labeled with the fluorophore FITC (PMO-FITC) were prepared at 1 mM in sterile water. HeLa cells were plated (20 000 cells/well) in a 96 well-dish the day prior to the experiment. Each delivery mix comprising a synthetic peptide shuttle agent (7.5, 10 or 20 μM) and a PMO-FITC (6 μM) was prepared and completed to 50 μL with RPMI-1640 media. Cells were washed once with PBS and the shuttle agent/PMO-FITC or PMO-FITC alone added on cells for five minutes. Then, 100 μL DMEM containing 10% FBS was added to the mix and removed. Cells were washed once with PBS and incubated in DMEM containing 10% FBS. Cells were analyzed after a 2-hour incubation by flow cytometry.
HeLa cells were transduced with 10 μM of PMO-FITC or fluorescently-labeled Peptide Nucleic Acid (PNA) (PNA TelC-Alexa 488; cat. no. F1004; PNA BIO Inc.) as generally described in the transduction protocol described in Example 1 with a few modifications. The shuttle peptide used was FSD250 (5 μM) and cells were contacted with the cargo and shuttle agent for two minutes, and cells were analyzed after a 1-hour incubation by flow cytometry.

in vitro = details: human, RH-30 cells
Protocol: (§1) Although naked DNA/RNA cargoes are shown to themselves be poor cargoes of synthetic peptide shuttle agents (Examples 3 and 9), the present Example evaluates their potential dominant negative effect in trans on shuttle agent-mediated transduction of PMO cargoes. Briefly, RH-30 cells (150,000 cells/well in 24-well dish) were contacted with a delivery mix of 6 μM of a PMO-FITC and of 5 μM of the synthetic peptide shuttle agent FSD250 for 2 minutes in RPMI, in the presence of increasing amounts of a DNA oligonucleotide or an sgRNA spiked in medium. Cells were then washed, incubated in growth medium and then collected for analysis by flow cytometry after 1 h. […] In all conditions tested, cell viability remained above 75%.
(§2) The present Example compares the PMO transduction activity of a prototypical CPD-comprising first generation shuttle agent with that of two rationally-designed second generation synthetic peptide shuttle agents. Briefly, RH-30 cells (20,000 cells/well in 96-well dish) were contacted with a delivery mix of 6 μM of a PMO-FITC and increasing concentrations of the first-generation shuttle agent His-CM18-PTD4 or two CPD-lacking second generation synthetic peptide shuttle agents (FSD250 and FSD10) for 2 minutes in RPMI. Cells were washed, incubated in complete medium and then collected for analysis by flow cytometry after 1 h. […]

RH-30 cells = assay: in vitro; details: 6 μM PMO-FITC, increasing shuttle concentrations, 2 minutes
Protocol: as §1, §2

HeLa cells [2] = assay: Propidium iodide (PI) transduction screening in HeLa cells; details: negative control peptide tested in parallel; data not shown
Protocol: HeLa cells were plated (20 000 cells/well) in a 96 well-dish the day prior to the experiment. Each delivery mix comprising a synthetic peptide shuttle agent (10 μM) and the propidium iodide (PI) (10 μg/mL) or the GFP-NLS (10 μM) were prepared and completed to 50 μL with phosphate-buffered saline (PBS) for PI or with RPMI-1640 medium for GFP-NLS. Cells were washed once and the shuttle agent/PI or shuttle agent/GFP-NLS added on cells for one minute (PI) or 5 minutes (GFP-NLS). Then 100 μL DMEM containing 10% FBS was added to the mix and removed. Cells were washed once with PBS and incubated in DMEM containing 10% FBS. Cells were analyzed after 2-hour incubation by flow cytometry. Cells were analyzed […]. […]
Due to the large number of peptides screened, negative controls were performed in parallel for each experimental batch and included a “no treatment” (NT) control in which the cells were not exposed to shuttle peptide or cargo, as well as a “cargo alone” control in which cells were exposed to the cargo in the absence of shuttle agent. […] Mean PI or GFP-NLS delivery score was calculated by multiplying the mean fluorescence intensity (of at least duplicate samples) measured for the viable PI+ or GFP+ cells by the mean percentage of viable PI+ or GFP+ cells, divided by 100,000 for GFP delivery or by 10,000 for PI delivery. […]

HeLa cells [3] = assay: PMO-FITC delivery in HeLa cells, immunofluorescence microscopy (vs Endoporter); details: 10 μM PMO-FITC with shuttle agent, 5-minute incubation in RPMI
Protocol: A PMO cargo delivery experiment in HeLa cells was performed to directly compare synthetic peptide shuttle agent-mediated PMO transduction with Endoporter-mediated intracellular PMO delivery. For shuttle agent-mediated transduction, HeLa cells were exposed to 10 μM of PMO-FITC in the presence of 2.5, 5, 7.5, or 10 μM of the second-generation shuttle agent FSD396 for 5 minutes in RPMI. For Endoporter-mediated delivery, HeLa cells were exposed to 10 μM of PMO-FITC in the presence of 2.5, 5, 7.5, or 10 μM of the commercially-available Endoporter' peptide (GeneTools, LLC) in growth medium for the manufacturer's recommended minimum incubation time of at least 24 hours. After a washing step, delivery results were compared by observing intracellular PMO-FITC fluorescence via immunofluorescence microscopy and results are shown in FIG. 11.

Gli1 protein = assay: Gli1 knock-down in DU145 cells, Western blot; details: FITC+ cells vs FITC− cells; 6 μM PMO, 5 μM FSD250, 48 hours
Protocol: DU145 cells were trypsinized and plated (500 000 cells/well) in a 24 well-dish the day prior to the experiment. […] Cells were washed once with PBS and delivery mixes were added on cells for five minutes. Then, 2 mL of RPMI-1640 containing 10% FBS was added to the mix and removed. Untreated cells were incubated with RPMI-1640 only. Cells were incubated in fresh RPMI-1640 containing 10% FBS. Forty height hours later, medium was removed and cells were washed once with PBS prior to trypsinization. Cells were harvested, collected by centrifugation, washed, and resuspended with PBS. Then, PMO-FITC positive and PMO-FITC negative cells were sorted and collected by virtue of FACS (BD FACS Aria Fusion). FITC-positive and FITC-negative cell samples were collected by centrifugation and resuspended in 50 μL protein extraction RIPA buffer (150 mM NaCl, 1% Nonidet™ P-40, 0.1% SDS, 0.5% Sodium deoxycholate, 25 mM Tris). Total protein concentrations were measured with a BCA protein assay kit. For all conditions, 10 μg of proteins were prepared at a final volume of 40 μL with 4× Laemmeli and RIPA buffer. Protein samples were then heated at 90° C. and separated through an 8% SDS-PAGE gel. Proteins were then transferred over night (25 volts) onto a […] PVDF membrane. Membranes were blocked using a 5% bovine serum albumin, Tris Buffer Saline, 0.1% Tween® 20 solution (5% BSA/TBS-T) for an hour. After blocking, the membrane was incubated for an hour with a 5% BSA/TBS-T solution containing anti alpha-Actinin (D6F6) primary antibody at a 1:1000. Alpha-Actinin protein present in the cell lysates served as loading control. Subsequently, the membranes were incubated over night with a 5% BSA/TBS-T solution containing anti-Gli1 primary antibody diluted 1:500. The membrane was then subjected to a 1-hour incubation at 1:5000 dilution of HRP-conjugated goat anti-rabbit secondary antibody 5% BSA/TBS-T solution. Chemiluminescence detection was performed using Clarity™ Western ECL Substrate and a ChemiDoc™ XRS apparatus. Gli1 and Alpha-Actinin densitometry was assessed using ImageJ™ software. […]

CC(C)C[C@H](NC(=O)[C@H](CCCCN)NC(=O)[C@H](CC(C)C)NC(=O)[C@H](CC(C)C)NC(=O)[C@H](CCCNC(=N)N)NC(=O)[C@H](CO)NC(=O)[C@H](Cc1c[nH]c2ccccc12)NC(=O)[C@H](CC(C)C)NC(=O)[C@H](CCCCN)NC(=O)[C@H](CC(C)C)NC(=O)[C@H](CC(C)C)NC(=O)[C@H](CCCCN)NC(=O)[C@H](Cc1c[nH]c2ccccc12)NC(=O)[C@@H](N)CCCCN)C(=O)N[C@@H](Cc1c[nH]c2ccccc12)C(=O)NCC(=O)NCC(=O)N[C@@H](CO)C(=O)NCC(=O)NCC(=O)NCC(=O)N[C@@H](CO)C(=O)N[C@@H](C)C(=O)N[C@@H](CCCNC(=N)N)C(=O)N[C@@H](C)C(=O)N[C@@H](C)C(=O)N[C@@H](CCCNC(=N)N)C(=O)N[C@@H](CCC(N)=O)C(=O)N[C@@H](C)C(=O)N[C@@H](CCCNC(=N)N)C(=O)O [FSD250] (H-KWKLLKLWSRLLKLWGGSGGGSARAARQAR-OH)
Cell viability (HeLa cells [1]): remained high | viability at 2 min, 5 µM (in vitro): > 75%

FSD10: CPD-lacking second generation synthetic peptide shuttle agent (KWKLARAFARAIKKLGGSGGGSYARALRRQARTG; FSD10)
PMO-FITC transduction efficiency compared to His-CM18-PTD4 (RH-30 cells): higher transduction efficiencies

FSD174 Scramble: negative control peptide known to have low or no GFP transduction activity (LGRSGRIKIGGWSALASRARQARGLKIWTQGRL; FSD174 Scramble)
PI transduction efficiency compared to cargo alone (HeLa cells [2]): lower transduction efficiencies for PI

FSD396: second-generation shuttle agent (KLKLAKLLLKALKKLGGSGGGSQAKAQAKQAK; FSD396)
intracellular delivery of PMO-FITC (HeLa cells [3]): robust intracellular delivery

PMO-Wnt1: antisense PMO molecule designed to knock-down expression of the Wnt1 protein (antisense GCAACAGCGCCCAGAGCCCCATG; all phosphorodiamidate morpholino (PMO))
Gli1 protein expression (Gli1 protein): knocked-down

From US20230383291A1, “PEPTIDE-BASED TRANSDUCTION OF NON-ANIONIC POLYNUCLEOTIDE ANALOGS FOR GENE EXPRESSION MODULATION” (FELDAN BIO INC., priority 2020, published 2023)
